Assay results from patent US20200283384A1, “ANTIBACTERIAL COMPOUNDS AND METHODS OF USE THEREOF” (Wayne State University, priority 2016, published 2020).
In brackets after ≈: the same amount, converted by molar mass. Where two headings read alike, the source gives them in different places.

Legend:
[1] = system: 24 strains of S. aureus (SA1-SA24); experiment: Broth micro-dilution MIC against 24 strains of S. aureus; assay type: cell-based; details: for MIC: Staphylococcus aureus, read-out: Compound MIC
Method: Compounds were tested for their anti-bacterial activity against 56 clinical isolates including 24 clinical isolates of methicillin resistant S. aureus (MRSA) and methicillin-susceptible S. aureus (MSSA), 8 strains of Enterococcus, 8 strains of Acinetobacter baumannii, 8 strains of Klebsiella pneumoniae, and 8 strains of Pseudomonas aeruginosa using a standard broth micro-dilution method as recommended by the Clinical and Laboratory Standard Institute (CLSI, M100, s23).
HN18 HN19, and HN34 were tested by a broth micro-dilution method to determine their minimal inhibitory concentration (MIC) against 24 strains of S. aureus (SA1-SA24) (Table 2). […]. Furthermore, the results for HN18 and HN34 were consistent across four repeated experiments. […]

[2] = system: S. aureus isolates; details: for MIC: Staphylococcus aureus
[3] = system: S. aureus clinical isolates; experiment: Synergistic effect with oxacillin (oxacillin MIC alone and in presence of SIC); assay type: cell-based, Staphylococcus aureus; details: Staphylococcus aureus
Method: The synergistic effect (interaction) of HN18 and HN34 with different antibiotics against S. aureus clinical isolates was studied. The oxacillin MIC values of 8 clinical isolates of Staphylococcus aureus were determined. The oxacillin MIC of the same isolates were also determined after they were exposed to SIC of HN18, HN34 (Table 5). […] Column 2 and 3 show the oxacillin MIC value of the same isolates in presence of SIC of HN18 and HN34 respectively.

COc1cc(/C=C/C(=O)C(=Cc2ccc(F)c(F)c2)C(=O)/C=C/c2ccc(O)c(OC)c2)ccc1O [HN19, (1E,6E)-1,7-bis(4-hydroxy-3-methoxyphenyl)hepta-1,6-diene{4(3,4 difluorobenzylidene)}-3,5-dione]
Effect against the panel of S. aureus strains ([1]; 24 strains SA1-SA24, broth micro-dilution): effective
MIC ([1]; isolate SA1, experiment I): 1 µg/mL (≈ 2.03 µM)
MIC ([1]; isolate SA1, experiment II): 8 µg/mL (≈ 16.2 µM)
MIC ([1]; isolate SA1, experiment III): 8 µg/mL (≈ 16.2 µM)
MIC ([1]; isolate SA1, experiment IV): 16 µg/mL (≈ 32.5 µM)
MIC ([1]; isolate SA2, experiment I): 1 µg/mL (≈ 2.03 µM)
MIC ([1]; isolate SA2, experiment II): 4 µg/mL (≈ 8.12 µM)
MIC ([1]; isolate SA2, experiment III): 4 µg/mL (≈ 8.12 µM)
MIC ([1]; isolate SA2, experiment IV): 8 µg/mL (≈ 16.2 µM)
MIC ([1]; isolate SA3, experiment I): 1 µg/mL (≈ 2.03 µM)
MIC ([1]; isolate SA3, experiment II): 4 µg/mL (≈ 8.12 µM)
MIC ([1]; isolate SA3, experiment III): 8 µg/mL (≈ 16.2 µM)
MIC ([1]; isolate SA3, experiment IV): 8 µg/mL (≈ 16.2 µM)
MIC ([1]; isolate SA4, experiment I): 2 µg/mL (≈ 4.06 µM)
MIC ([1]; isolate SA4, experiment II): 4 µg/mL (≈ 8.12 µM)
MIC ([1]; isolate SA4, experiment III): 8 µg/mL (≈ 16.2 µM)
MIC ([1]; isolate SA4, experiment IV): 1 µg/mL (≈ 2.03 µM)
MIC ([1]; isolate SA5, experiment I): 0.5 µg/mL (≈ 1.02 µM)
MIC ([1]; isolate SA5, experiment II): 2 µg/mL (≈ 4.06 µM)
MIC ([1]; isolate SA5, experiment III): 4 µg/mL (≈ 8.12 µM)
MIC ([1]; isolate SA5, experiment IV): 8 µg/mL (≈ 16.2 µM)
MIC ([1]; isolate SA6, experiment I): 0.5 µg/mL (≈ 1.02 µM)
MIC ([1]; isolate SA6, experiment II): 4 µg/mL (≈ 8.12 µM)
MIC ([1]; isolate SA6, experiment III): 4 µg/mL (≈ 8.12 µM)
MIC ([1]; isolate SA6, experiment IV): 8 µg/mL (≈ 16.2 µM)
MIC ([1]; isolate SA7, experiment I): 0.5 µg/mL (≈ 1.02 µM)
MIC ([1]; isolate SA7, experiment II): 4 µg/mL (≈ 8.12 µM)
MIC ([1]; isolate SA7, experiment III): 4 µg/mL (≈ 8.12 µM)
MIC ([1]; isolate SA7, experiment IV): 8 µg/mL (≈ 16.2 µM)
MIC ([1]; isolate SA8, experiment I): 0.5 µg/mL (≈ 1.02 µM)
MIC ([1]; isolate SA8, experiment II): 4 µg/mL (≈ 8.12 µM)
MIC ([1]; isolate SA8, experiment III): 8 µg/mL (≈ 16.2 µM)
MIC ([1]; isolate SA8, experiment IV): 8 µg/mL (≈ 16.2 µM)
MIC ([1]; isolate SA9, experiment I): 0.5 µg/mL (≈ 1.02 µM)
MIC ([1]; isolate SA9, experiment II): 0.5 µg/mL (≈ 1.02 µM)
MIC ([1]; isolate SA10, experiment I): 2 µg/mL (≈ 4.06 µM)
MIC ([1]; isolate SA10, experiment II): 4 µg/mL (≈ 8.12 µM)
MIC ([1]; isolate SA11, experiment I): 1 µg/mL (≈ 2.03 µM)
MIC ([1]; isolate SA11, experiment II): 2 µg/mL (≈ 4.06 µM)
MIC ([1]; isolate SA12, experiment I): 2 µg/mL (≈ 4.06 µM)
MIC ([1]; isolate SA12, experiment II): 4 µg/mL (≈ 8.12 µM)
MIC ([1]; isolate SA13, experiment I): 1 µg/mL (≈ 2.03 µM)
MIC ([1]; isolate SA13, experiment II): 4 µg/mL (≈ 8.12 µM)
MIC ([1]; isolate SA14, experiment I): 2 µg/mL (≈ 4.06 µM)
MIC ([1]; isolate SA14, experiment II): 2 µg/mL (≈ 4.06 µM)
MIC ([1]; isolate SA15, experiment I): 1 µg/mL (≈ 2.03 µM)
MIC ([1]; isolate SA15, experiment II): 1 µg/mL (≈ 2.03 µM)
MIC ([1]; isolate SA16, experiment I): 0.25 µg/mL (≈ 0.508 µM)
MIC ([1]; isolate SA16, experiment II): 0.5 µg/mL (≈ 1.02 µM)
MIC ([1]; isolate SA17, experiment I): 2 µg/mL (≈ 4.06 µM)
MIC ([1]; isolate SA17, experiment II): 4 µg/mL (≈ 8.12 µM)
MIC ([1]; isolate SA18, experiment I): 1 µg/mL (≈ 2.03 µM)
MIC ([1]; isolate SA18, experiment II): 4 µg/mL (≈ 8.12 µM)
MIC ([1]; isolate SA19, experiment I): 1 µg/mL (≈ 2.03 µM)
MIC ([1]; isolate SA19, experiment II): 4 µg/mL (≈ 8.12 µM)
MIC ([1]; isolate SA20, experiment I): 1 µg/mL (≈ 2.03 µM)
MIC ([1]; isolate SA20, experiment II): 4 µg/mL (≈ 8.12 µM)
MIC ([1]; isolate SA21, experiment I): 2 µg/mL (≈ 4.06 µM)
MIC ([1]; isolate SA21, experiment II): 8 µg/mL (≈ 16.2 µM)
MIC ([1]; isolate SA22, experiment I): 2 µg/mL (≈ 4.06 µM)
MIC ([1]; isolate SA22, experiment II): 4 µg/mL (≈ 8.12 µM)
MIC ([1]; isolate SA23, experiment I): 2 µg/mL (≈ 4.06 µM)
MIC ([1]; isolate SA23, experiment II): 4 µg/mL (≈ 8.12 µM)
MIC ([1]; isolate SA24, experiment I): 1 µg/mL (≈ 2.03 µM)
MIC ([1]; isolate SA24, experiment II): 4 µg/mL (≈ 8.12 µM)

Cc1onc(-c2ccccc2)c1C(=O)N[C@@H]1C(=O)N2[C@@H]1SC(C)(C)[C@@H]2C(=O)O [Oxacillin, reference compound]
MIC ([2]; read-out: Oxacillin MIC): > 16 µg/mL
Oxacillin MIC ([2]; isolates SA1, SA2, prior to exposure to sub-inhibitory concentration of HN18 and HN34): > 16 µg/mL
MIC ([3]; isolate SA3, oxacillin tested alone): > 16 µg/mL
MIC ([3]; isolate SA4, oxacillin tested alone): > 16 µg/mL
MIC ([3]; isolate SA5, oxacillin tested alone): > 16 µg/mL
MIC ([3]; isolate SA9, oxacillin tested alone): > 16 µg/mL
MIC ([3]; isolate SA10, oxacillin tested alone): 16 µg/mL
MIC ([3]; isolate SA11, oxacillin tested alone): 8 µg/mL
MIC ([3]; isolate SA15, oxacillin tested alone): > 16 µg/mL
MIC ([3]; isolate SA18, oxacillin tested alone): > 16 µg/mL

O=C(N[C@H](CO)[C@H](O)c1ccc([N+](=O)[O-])cc1)C(Cl)Cl [chloramphenicol]
MIC ([2]; read-out: Chloramphenicol MIC): > 40 µg/mL
